As a reminder, the Km is the concentration of substrate that gives half-maximal velocity. A word on the kcat: it is the number of substrate molecules converted per active site and unit of time at saturation. For orientation: kcat/Km means the second-order rate constant that governs catalysis at low substrate concentration.

Values after ≈ are worked out from the molar mass of the structure shown.

This note sets out measurements from PMC4267739, “Functional Characterization of Corynebacterium glutamicum Mycothiol S-Conjugate Amidase” (PLoS ONE, 2014).

The test system of data set [1] is T1, Corynebacterium glutamicum WT(pXMJ19).
T1 construct: RES167 wild type carrying empty vector pXMJ19
As to the kind of experiment: microbe, parasite or virus in culture. Further details: species or system Corynebacterium glutamicum RES167 (pXMJ19); Broth dilution MIC in LB at 30 °C, serial 2-fold dilution, growth checked after 1 to 2 days. Particulars: LB, 30 °C, wild type with empty vector pXMJ19; for MIC: Corynebacterium glutamicum, read-out: MIC (µg ml^−1) / WT(pXMJ19). On the procedure:
Disk diffusion assays were performed for antibiotics, alkylating agents, and oxidative agents according to Rawat et al.. Briefly, cells were grown to the mid-log phase and a lawn of cells was plated onto LB plates. After the paper disks were placed into the plates, various amounts of agents (10 µl) were added to the disk. The disks were allowed to dry and the plates were incubated for 2 to 3 days. For the minimal broth dilution assay, antibiotics were serially diluted (0.5×) in LB medium (1 ml) and cells (A 600 = 1.6) were inoculated. After 1 to 2 days of incubation at 30°C, the tubes were checked for growth. The bacteriostasis growth curve assay was used to determine the sensitivity of C. glutamicum to heavy metal stress. LB-grown strains (50 µl) were transferred to LB broth (5 ml), with and without addition of various concentrations of heavy metals (Cd^2+, Ni^2+, Cr^2+ and Cu^2+) and incubated at 30°C. The cellular growth was monitored turbidimetrically (A 600) after 24 h. All assays were performed in triplicate. First, sensitivity of C. glutamicum strains to Macrolides and β-Lactams was tested. […] These observations indicate that the Mca-dependent detoxification pathway indeed plays a major role in the detoxification of rifamycin S. However, no significant difference was found in the size of growth inhibition zones around erythromycin, lincomycin and spectinomycin (all belong to […]) between WT(pXMJ19), Δmca(pXMJ19) and the complementary strain Δmca(pXMJ19-mca) (Table 3; p>0.05). Similar trend was obtained in the MIC data (Table 4). […] Bacterial strains used in this study are listed in S1 Table. Escherichia coli and C. glutamicum strains were routinely cultured in Luria-Bertani (LB) broth or on LB plates at 37°C and 30°C, respectively. For generation of mutants and maintenance of C. glutamicum, brain heart infusion broth with 0.5 M sorbitol (BHIS) was used. The C. glutamicum RES167 strain was the parent of all derivatives used in this study. In-frame deletions were generated by the method as described previously. Cell growth was monitored by measuring absorbance at 600 nm (A 600). Antibiotics were added at the following concentrations: kanamycin, 50 µg ml^−1 for E. coli and 25 µg ml^−1 for C. glutamicum; nalidixic acid, 40 µg ml^−1 for C. glutamicum; chloramphenicol, 20 µg ml^−1 for E. coli and 10 µg ml^−1 for C. glutamicum.

The subject of data set [2] is CC(=O)N[C@@H](CSCc1c(C)c(=O)n2c(=O)c(C)c(C)n12)C(=O)N[C@H]1[C@@H](O[C@@H]2[C@H](O)[C@H](O)[C@@H](O)[C@H](O)[C@H]2O)O[C@H](CO)[C@@H](O)[C@@H]1O. As to the kind of experiment: purified protein. To be noted: amidase activity, 10 µM enzyme, 0-10 mM MSmB, 50 mM HEPES pH 7.5, 37°C, Table 6 prints 92.34±1.5 mM and kcat unit min^-1.
Excerpt: fluorescamine assay of released amine, Eadie-Hofstee on C. glutamicum Mca (mycothiol S-conjugate amidase; His6-Mca)

`CO[C@H]1/C=C/O[C@@]2(C)Oc3c(C)c(O)c4c(c3C2=O)C(=O)C=C(NC(=O)/C(C)=C\C=C\[C@H](C)[C@H](O)[C@@H](C)[C@@H](O)[C@@H](C)[C@H](OC(C)=O)[C@@H]1C)C4=O` [Rifamycin S]: the MIC in data set [1] was 12.5 mg/L (≈ 18 µM).

As to `CN(C)[C@@H]1C(O)=C(C(N)=O)C(=O)[C@@]2(O)C(O)=C3C(=O)c4c(O)cccc4[C@@](C)(O)[C@H]3C[C@@H]12` [Tetracycline], the MIC in data set [1] was 3.12 mg/L (≈ 7.03 µM).

With `CN[C@H](CC(C)C)C(=O)N[C@H]1C(=O)N[C@@H](CC(N)=O)C(=O)N[C@H]2C(=O)N[C@H]3C(=O)N[C@H](C(=O)N[C@H](C(=O)O)c4cc(O)cc(O)c4-c4cc3ccc4O)[C@H](O)c3ccc(c(Cl)c3)Oc3cc2cc(c3O[C@@H]2O[C@H](CO)[C@@H](O)[C@H](O)[C@H]2O[C@H]2C[C@](C)(N)[C@H](O)[C@H](C)O2)Oc2ccc(cc2Cl)[C@H]1O` [Vancomycin], the MIC in data set [1] was determined as 32 mg/L (≈ 22.1 µM).

Turning to `NC[C@@H]1O[C@H](O[C@H]2[C@@H](O)[C@H](O[C@@H]3[C@@H](O)[C@H](N)C[C@H](N)[C@H]3O[C@H]3O[C@H](CN)[C@@H](O)[C@H](O)[C@H]3N)O[C@@H]2CO)[C@H](N)[C@@H](O)[C@@H]1O` [Neomycin], the MIC in data set [1] was 7.5 mg/L (≈ 12.2 µM).

Consider `CN[C@@H]1[C@H](O[C@H]2[C@H](O[C@H]3[C@H](O)[C@@H](O)[C@H](N=C(N)N)[C@@H](O)[C@@H]3N=C(N)N)O[C@@H](C)[C@]2(O)C=O)O[C@@H](CO)[C@H](O)[C@H]1O` [Streptomycin], for which the “MIC (µg ml^−1) / WT(pXMJ19)” value in data set [1] (inhibitor) was determined as 1.25 ug/mL.

For the compound `CN[C@@H]1[C@H](O)[C@H](NC)[C@H]2O[C@@]3(O)C(=O)C[C@@H](C)O[C@H]3O[C@@H]2[C@H]1O` [Spectinomycin], in data set [1], the MIC came out at 128 mg/L (≈ 385 µM).

Regarding `CC[C@H]1OC(=O)[C@H](C)[C@@H](O[C@H]2C[C@@](C)(OC)[C@@H](O)[C@H](C)O2)[C@H](C)[C@@H](O[C@@H]2O[C@H](C)C[C@H](N(C)C)[C@H]2O)[C@](C)(O)C[C@@H](C)C(=O)[C@H](C)[C@@H](O)[C@]1(C)O` [Erythromycin], the MIC in data set [1] came to 25 mg/L (≈ 34.1 µM).

As to “C. glutamicum Mca (mycothiol S-conjugate amidase; His6-Mca) (Corynebacterium glutamicum ATCC 13032)”, in data set [2], the Km amounted to 92.30 ± 1.5 mM, the kcat came out at 3.56 ± 0.9 s⁻¹ and the kcat/Km amounted to 38.5 ± 9.6 M⁻¹ s⁻¹.

For `O=C(O)c1cn(C2CC2)c2cc(N3CCNCC3)c(F)cc2c1=O` [Ciprofloxacin], the MIC in data set [1] came to 1.56 mg/L (≈ 4.71 µM).

With `CCC[C@@H]1C[C@@H](C(=O)N[C@@H]([C@H]2O[C@H](SC)[C@H](O)[C@@H](O)[C@H]2O)[C@@H](C)O)N(C)C1` [Lincomycin], the MIC in data set [1] was determined as 62.5 mg/L (≈ 154 µM).

`CC1(C)S[C@@H]2[C@H](NC(=O)Cc3ccccc3)C(=O)N2[C@H]1C(=O)O` [Penicillin]: in data set [1], the MIC is greater than 350 mg/L.
